The text below walks through data of US12441733B2, “Substituted 2,4-dioxotetrahydropyrimidines as intermediates in the synthesis of bruton's tyrosine kinase inhibitors” (Novartis AG, priority 2018, dated 2025).

Like-named read-outs stand apart in the source and are kept apart here.

Holding throughout (format): cell-based
Assay [1] has as its target T1, BTK-GFP (Homo sapiens, UniProt Q06187+Q96SW2).
T1 construct: expressed in transfected cells; host or cells: HEK293A (Invitrogen R70507), lentiviral transduction with pLenti6-BTK-GFP-Ires-RFP, blasticidin selection
The experiment in a line: BTK-GFP protein abundance flow cytometry assay in HEK293A cells. The conditions noted are these: HEK293A BTK-GFP-iresRFP cells, 24 h; for DC50: GFP signal by flow cytometry, concentration at which 50% maximal degradation was observed; for BTK deg Amax: % protein remaining at the concentration at which maximum degradation is seen. The method, boiled down:
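HEK293A cells stably expressing bicistronic BTK-GFP-IRES-RFP (C-terminal GFP tag) via lentiviral vector. Degradation read by flow cytometry as loss of GFP signal after degrader treatment. DC50 is concentration giving 50% maximal degradation; Amax is % protein remaining at maximal degradation.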
A general note: A flow cytometer gives signals particle by particle.

The test system of assay [2] is OCI-LY3 cells. The experiment in a line: Resazurin cell viability (proliferation) assay in OCI-LY3 DLBCL cells. Conditions: OCI-LY3 cells (BTK independent), 72 h, 50% growth inhibition vs vehicle, read-out: OCI-LY3 Prol GI50. The method, boiled down:
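Cells were seeded at 1×10^4 per well and dosed 3 h later: 8-point 1:4 dilutions from 10 μM (OCI-LY3), in triplicate, 72 h at 37 °C. Resazurin (13 μg/ml final) was added for the last 2 h and fluorescence read at 530/600 nm. GI50 is relative to DMSO vehicle, typically from ≥2 independent experiments.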
(Alamar Blue is a resazurin reagent that responds to reducing activity.)

The test system of assay [3] is TMD8 cells. The experiment in a line: Resazurin cell viability (proliferation) assay in TMD8 DLBCL cells. The conditions noted are these: TMD8 cells (BTK dependent), 72 h, 50% growth inhibition vs vehicle, read-out: TMD8 Prol GI50. Put shortly: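 TMD8 cells were seeded at 1×10^4 per well and treated 3 h later with compound, in an 8-point 1:4 dilution series starting at 1 μM, or DMSO, for 72 h at 37° C. Resazurin was added at 13 μg/ml final for the last 2 h, and fluorescence was read at ex 530/em 600 nm. GI50 versus vehicle was derived by curve fitting from triplicates.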

Assay [4] deals with T2, IKZF3-GFP (Homo sapiens, UniProt Q96SW2+Q9UKT9).
T2 construct: expressed in transfected cells; host or cells: HEK293A (Invitrogen R70507), lentiviral transduction with pLenti6-IKZF3-GFP-Ires-RFP, blasticidin selection
The experiment in a line: IKZF3-GFP protein abundance flow cytometry assay in HEK293A cells. Conditions: Table 3, positive control compounds; % protein remaining at maximum degradation. Here is the method: BTK-GFP and IKZF3-GFP protein abundance flow cytometry assay in HEK293A cells:
Degradation of BTK or IKZF3 was measured in HEK293A cells (Invitrogen R70507) expressing either BTK-GFP and RFP or IKZF3-GFP and RFP from a stably integrated bicistronic BTK-GFP-iresRFP or IKZF3-GFP-iresRFP construct, respectively. Reduction of the GFP signal measured by flow cytometry served as readout for BTK or IKZF3 degradation after degrader treatment.
By analogy the bicistronic pLenti6-IKZF3-GFP-iresRFP was engineered by gateway cloning of IKZF3 from a pENTR221-IKZF3(STOP-Leu) construct into the previously described pLenti6-DEST-GFP-Ires-RFP vector using the LR Clonase kit (Invitrogen 11791-019) according to the manufacturer's manual. All vectors described have been sequenced for verification.
ii) Engineering of Stably Expressing 293A BTK-GFP-Ires-RFP and IKZF3-GFP-Ires-RFP Sensor Cells
293A BTK-GFP-Ires-RFP and IKZF3-GFP-ires-RFP sensor cells were generated by lentiviral vector transduction using the pLenti6-BTK-GFP-Ires-RFP or pLenti6-IKZF3-GFP-Ires-RFP sensor construct described before. Lentiviral particles were produced in HEK293FT cells (Invitrogen R70007) by co-transfection of 500 ng pLenti6-BTK-GFP-ires-RFP or pLenti6-IKZF3-GFP-Ires-RFP, 500 ng delta8.71 and 200 ng pVSVG diluted in 100 μl OptiMEM serum free medium (Invitrogen #11058-021) that was mixed after 5 min preincubation with 3 μl of Lipofectamine2000 (Invitrogen #11668-019) in 97 μl OptiMEM serum free medium. The mix was incubated for another 20 min at RT and then added on 1 ml of a freshly prepared suspension of HEK293FT cells in a well of a 6-well plate (concentration 1.2×10^6 cells/ml). 1 day after transfection, the medium was replaced with 1.5 ml of complete growth medium (DMEM high Glucose+10% FCS+1% L-Glutamine+1% NEAA+1% NaPyr.). 48 h post transfection supernatant containing viral transducing particles was collected and frozen at −80° C.
Two days before transduction with viral particles 1×10^5 HEK293A cells (Invitrogen R70507) were seeded in 2 ml growth medium in a well of a 6-well plate. Infection was performed with 90 μl of collected supernatant containing viral transducing particles in 1 ml medium including 8 μg/ml polybrene. 24 h post infection, stably transfected cells were selected with blasticidin at a concentration of 8 μg/ml.
Iii) Quantitative BTK-GFP and IKZF3-GFP Abundance Measurements
Stable HEK293A-BTK-GFP-iresRFP cells were maintained in complete growth medium (DMEM high Glucose+10% FCS+1% L-Glutamine+1% NEAA+1% NaPyr.) with passaging performed twice per week. On Day 0, HEK293A-BTK-GFP-iresRFP or HEK293A-IKZF3-GFP-iresRFP and HEK293A-iresRFP cells were seeded at 10,000 cells/well in a 96-well microtiter plate in 260 μl complete medium. On Day 1, cells were treated in duplicate with 10-point 1:3 dilution series of compound using the HP D300 Digital Dispenser (Tecan). DMSO concentrations were normalized across the plate to 0.1%. On Day 2, after 24 h of incubation at 37° C., treatment media was discarded, cells rinsed with 100 μl/well PBS and then detached using 40 μl trypsin/well for 5 min. Trypsin was neutralized with 100 μl/well PBS+20% FCS). Flow cytometry was performed on the samples using the BD FACS CANTO II (Becton Dickinson). Cell identification was then performed using forward (FSC) vs. side scatter (SSC) plots. […] Median GFP values for 5,000 single cells are used to determine BTK levels. Median GFP values from HEK293A-iresRFP are used as a background signal and thus defining 0% BTK signal. Median GFP values from DMSO treated HEK293A-BTK-GFP-iresRFP or HEK293A-IKZF3-GFP-iresRFP are used to define 100% BTK signal for subsequent DC50 curves (concentration at 50% BTK degradation).

T1 sequence (Q06187 whole entry): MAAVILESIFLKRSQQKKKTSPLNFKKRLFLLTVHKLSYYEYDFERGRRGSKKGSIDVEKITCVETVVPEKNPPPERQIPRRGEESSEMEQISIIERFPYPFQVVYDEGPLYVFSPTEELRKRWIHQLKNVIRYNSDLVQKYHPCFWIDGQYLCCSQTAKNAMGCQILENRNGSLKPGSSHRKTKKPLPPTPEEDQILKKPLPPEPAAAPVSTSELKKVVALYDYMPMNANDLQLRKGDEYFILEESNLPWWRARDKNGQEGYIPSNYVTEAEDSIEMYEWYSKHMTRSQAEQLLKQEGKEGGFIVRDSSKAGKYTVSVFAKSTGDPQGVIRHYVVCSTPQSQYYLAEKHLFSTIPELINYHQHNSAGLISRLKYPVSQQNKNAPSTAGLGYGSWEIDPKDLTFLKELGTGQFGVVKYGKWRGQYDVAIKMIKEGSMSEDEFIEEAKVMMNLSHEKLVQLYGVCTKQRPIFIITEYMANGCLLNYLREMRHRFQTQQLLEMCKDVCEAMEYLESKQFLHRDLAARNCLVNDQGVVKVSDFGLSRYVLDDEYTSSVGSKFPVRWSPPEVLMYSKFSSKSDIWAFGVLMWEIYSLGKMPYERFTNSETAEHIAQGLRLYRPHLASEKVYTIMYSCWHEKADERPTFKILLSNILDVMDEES
T1 sequence (Q96SW2 whole entry): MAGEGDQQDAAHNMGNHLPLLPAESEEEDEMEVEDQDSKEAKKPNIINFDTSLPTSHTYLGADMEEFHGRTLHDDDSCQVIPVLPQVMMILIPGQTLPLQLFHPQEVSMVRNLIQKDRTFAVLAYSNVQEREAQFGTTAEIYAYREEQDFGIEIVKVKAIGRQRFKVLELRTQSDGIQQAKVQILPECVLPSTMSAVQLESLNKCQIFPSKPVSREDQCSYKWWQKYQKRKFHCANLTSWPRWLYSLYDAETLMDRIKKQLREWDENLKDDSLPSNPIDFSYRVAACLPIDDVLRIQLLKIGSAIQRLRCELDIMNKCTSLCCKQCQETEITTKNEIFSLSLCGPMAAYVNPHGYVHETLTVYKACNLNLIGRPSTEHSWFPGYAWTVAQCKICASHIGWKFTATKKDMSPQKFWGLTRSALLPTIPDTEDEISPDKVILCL
T1 sequence (Q16531 whole entry partner): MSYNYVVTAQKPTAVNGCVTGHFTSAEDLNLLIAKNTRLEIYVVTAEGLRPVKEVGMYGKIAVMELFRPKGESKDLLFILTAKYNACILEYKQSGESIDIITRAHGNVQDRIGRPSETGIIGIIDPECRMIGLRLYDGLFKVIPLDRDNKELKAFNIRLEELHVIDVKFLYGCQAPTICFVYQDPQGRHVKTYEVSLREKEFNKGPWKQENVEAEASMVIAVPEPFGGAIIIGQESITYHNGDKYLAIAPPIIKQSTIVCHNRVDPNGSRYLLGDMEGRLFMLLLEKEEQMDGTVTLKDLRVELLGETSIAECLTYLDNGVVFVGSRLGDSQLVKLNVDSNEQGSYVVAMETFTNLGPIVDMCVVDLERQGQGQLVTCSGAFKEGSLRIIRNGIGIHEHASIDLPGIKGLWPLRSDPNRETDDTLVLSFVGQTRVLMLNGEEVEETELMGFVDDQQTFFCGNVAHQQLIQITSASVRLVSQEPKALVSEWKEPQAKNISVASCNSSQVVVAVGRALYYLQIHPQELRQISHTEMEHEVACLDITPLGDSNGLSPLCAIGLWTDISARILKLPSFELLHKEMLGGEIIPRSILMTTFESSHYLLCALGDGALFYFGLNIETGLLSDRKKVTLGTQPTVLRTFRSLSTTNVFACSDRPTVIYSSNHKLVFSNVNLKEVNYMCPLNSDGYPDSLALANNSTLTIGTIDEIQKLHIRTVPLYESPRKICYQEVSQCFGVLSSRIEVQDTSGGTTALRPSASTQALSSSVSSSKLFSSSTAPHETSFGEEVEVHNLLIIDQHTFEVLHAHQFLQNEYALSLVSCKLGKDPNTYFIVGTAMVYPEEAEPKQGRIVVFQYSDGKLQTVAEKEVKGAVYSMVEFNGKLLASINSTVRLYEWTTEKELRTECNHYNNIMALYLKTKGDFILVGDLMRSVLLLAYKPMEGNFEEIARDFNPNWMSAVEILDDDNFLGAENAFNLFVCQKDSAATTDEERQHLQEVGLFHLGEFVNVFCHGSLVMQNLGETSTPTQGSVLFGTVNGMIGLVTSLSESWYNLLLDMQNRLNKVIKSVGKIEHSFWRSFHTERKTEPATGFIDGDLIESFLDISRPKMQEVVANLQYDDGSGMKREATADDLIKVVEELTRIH
T2 sequence (Q9UKT9 whole entry): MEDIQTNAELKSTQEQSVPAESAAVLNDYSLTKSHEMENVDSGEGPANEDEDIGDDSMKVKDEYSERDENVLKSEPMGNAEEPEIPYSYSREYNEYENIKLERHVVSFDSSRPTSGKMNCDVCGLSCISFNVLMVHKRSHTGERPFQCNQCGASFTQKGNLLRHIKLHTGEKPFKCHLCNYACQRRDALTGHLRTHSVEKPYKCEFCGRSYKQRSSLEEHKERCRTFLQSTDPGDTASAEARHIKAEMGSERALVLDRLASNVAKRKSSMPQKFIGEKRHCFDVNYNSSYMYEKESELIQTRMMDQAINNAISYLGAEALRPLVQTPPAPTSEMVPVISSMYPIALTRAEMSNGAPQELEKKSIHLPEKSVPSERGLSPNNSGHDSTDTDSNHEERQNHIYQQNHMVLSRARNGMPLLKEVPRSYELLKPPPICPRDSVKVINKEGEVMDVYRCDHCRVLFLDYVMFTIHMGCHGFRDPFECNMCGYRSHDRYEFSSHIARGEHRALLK
T2 sequence (Q96SW2 whole entry): as the sequence (Q96SW2 whole entry) above
T2 sequence (Q16531 whole entry partner): as the sequence (Q16531 whole entry partner) above

With `COc1ccc(C(=O)N2CCC(O[C@H]3CC[C@H](OCc4ccc(-c5cc6c(-c7cc(F)cc(NC(=O)c8ccc(C(C)(C)O)cc8F)c7C)ncnc6[nH]5)cc4)CC3)CC2)cc1N1CCC(=O)NC1=O` [Compound 56, N-(3-(6-(4-((((1r,4r)-4-((1-(3-(2,4-dioxotetrahydropyrimidin-1(2H)-yl)-4-methoxybenzoyl)piperidin-4-yl)oxy)cyclohexyl)oxy)methyl)phenyl)-7H-pyrrolo[2,3-d]pyrimidin-4-yl)-5-fluoro-2-methylphenyl)-2-fluoro-4-(2-hydroxypropan-2-yl)benzamide], the DC50 (usually the concentration giving 50% degradation) in assay [1] turned out to be 0.004 µM. Also, the “BTK deg Amax” value in assay [1] turned out to be 4.4%. The values for the concentration for 50% growth inhibition (GI50) in assay [2] and in assay [3] were 6.33 µM and 0.0154 µM, respectively.

`Cc1c(NC(=O)c2ccc(C(C)(C)O)cc2F)cc(F)cc1-c1ncnc2[nH]c(-c3ccc(CN4CCC5(CCN(CCCNC(=O)c6ccc(Cl)c(N7CCC(=O)NC7=O)c6)CC5)CC4)cc3)cc12` [Compound 57, N-(3-(6-(4-((9-(3-(4-chloro-3-(2,4-dioxotetrahydropyrimidin-1(2H)-yl)benzamido)propyl)-3,9-diazaspiro[5.5]undecan-3-yl)methyl)phenyl)-7H-pyrrolo[2,3-d]pyrimidin-4-yl)-5-fluoro-2-methylphenyl)-2-fluoro-4-(2-hydroxypropan-2-yl)benzamide]: in assay [1], half-maximal degradation (DC50) was put at 0.0144 µM and the “BTK deg Amax” value is given as 8.9%. In assay [2] (Homo sapiens), the concentration for 50% growth inhibition (GI50) (commonly the concentration at which growth is held to half of that of the control) was 4.4 µM. Further, the 50% growth inhibitory concentration (GI50) in assay [3] (Homo sapiens) is 0.00116 µM.

On to `COc1ccc(C(=O)N2CCC(OCCN3CCC(Oc4ccc(-c5cc6c(-c7cc(F)cc(NC(=O)c8ccc(C(C)(C)O)cc8F)c7C)ncnc6[nH]5)cc4)CC3)CC2)cc1N1CCC(=O)NC1=O` [Compound 58, N-(3-(6-(4-((1-(2-((1-(3-(2,4-dioxotetrahydropyrimidin-1(2H)-yl)-4-methoxybenzoyl)piperidin-4-yl)oxy)ethyl)piperidin-4-yl)oxy)phenyl)-7H-pyrrolo[2,3-d]pyrimidin-4-yl)-5-fluoro-2-methylphenyl)-2-fluoro-4-(2-hydroxypropan-2-yl)benzamide], for which, in assay [1], the 50% degradation concentration (DC50) turned out to be 0.0009 µM. The “BTK deg Amax” value in assay [1] is recorded as 1.8%. The 50% growth inhibitory concentration (GI50) in assay [2] (Homo sapiens) was determined as 4.92 µM; in assay [3] (Homo sapiens), 0.00056 µM.

For the molecule `Nc1cccc2c1C(=O)N(C1CCC(=O)NC1=O)C2=O` (stereo not shown) [Pomalidomide, reference compound], the “IKZF deg Amax” value in assay [4] was 13.2%.
